Tests used:
[1] = target: T1, PI3 Kinase alpha (p110 alpha/p85 alpha) (Homo sapiens, UniProt P42336); assay: PI3K TR-FRET assay (Transcreener ADP2); format: biochemical; settings: for inhibition at 1 µM: 1 uM compound, read-out: PI3K % Inhib@1 uM; for IC50: PI3K alpha, 1 μM ATP, 50 μM PIP2
T1 construct: purchased Invitrogen
Description: Enzymatic activity of PI3K alpha was measured using Time resolved Fluorescence resonance energy transfer (TR-FRET) assay. This assay utilizes ADP detection as a means to screen inhibitor potency of compounds. The Transcreener ADP2 TR-FRET Red Assay is a competitive immunoassay for ADP with a far-red, TR-FRET readout and it has been used for this purpose. The assay can be used for any enzyme class that produces ADP (Kinases, ATPases). It consists of ADP HiLyte647 Tracer, ADP^2 Antibody-Tb conjugate (800 nM), stop & detect buffer, 5 mM ATP, 5 mM ADP. The ADP HiLyte647 Tracer is bound to an ADP^2 Antibody-Tb conjugate. The excitation of the terbium complex in the UV range results in energy transfer to the tracer and emission at a higher wavelength after a time delay ADP produced by the target enzyme displaces the tracer which causes decrease in TR-FRET.
The reaction buffer used for the assay was 50 mM HEPES, pH 7.4.3 mM MgCl2, 0.05% CHAPS, 50 mM NaCl, 2 mM DTT, 1 mM EGTA. PI3 Kinase alpha (p110 alpha/p85 alpha) and PIP2 Substrate (diC8,) were procured from Invitrogen and Echelon respectively.
Kinase reactions were performed in 10 μl volume in Corning white 384 well plates. […] Reaction was initiated by the addition of substrate (PIP2) and ATP at final conc. of 50 μM and 1 μM ATP in the reaction respectively. Kinase reactions were allowed to proceed for 1 hour at room temperature before a 10 μL preparation of Transcreener ADP detection mix was added. Plate was incubated at room temperature for 1 hr. ADP-ATP standard curves were also prepared.
(§1) FRET signal was read in Envision Multilabel Reader with the following filters:
Excitation-330 nm and Emission 615 nm (donor) and 665 nm (acceptor). TR FRET Ratio (Fluorescence 665 nm/Fluorescence 615 nm) was converted to amount of product formed using the standard curve generated. Percentage inhibition was calculated and plotted against the concentration of inhibitor and data was fit to Non Linear Regression curve fit (sigmoidal dose response curve with variable slope-four parameters) using Graph pad prism 5 and IC50 was calculated for the compound.

[2] = target: T2, Recombinant mTOR (FRAP1) (Homo sapiens, UniProt P42345); assay: mTOR in vitro kinase assay (TR-FRET, phosphorylation of GFP-4E-BP1); format: biochemical; settings: for inhibition at 1 µM: 1 uM compound, read-out: mTOR % Inhib@1 uM; for IC50: 8 μM ATP, 400 nM GFP-4E-BP1
T2 construct: purchased Invitrogen
Description: Compounds were evaluated for mTOR activity using an in vitro kinase assay.
mTOR activity is measured in vitro by determining the level of phosphorylation of the protein substrate 4EBP-1. The phosphorylation of GFP-4E-BP1 at threonine residue is recognized by Ab Tb-Anti-p4EBP1, which results in time resolved fluorescence energy transfer (TR-FRET) between GFP and Terbium in the Ab-Protein complex.
Recombinant mTOR (FRAP1), Kinase reaction buffer, GFP-4E-BP1 and LanthaScreen Tb-anti-4E-BP1 (pThr46), TR FRET dilution buffer, Kinase Quench Buffer were obtained from Invitrogen.
Kinase reactions were performed in 10 μl volume in Corning white 384 well plates. […] The reaction was initiated by the addition of substrate (GFP-4E-BP1) and ATP at a final conc. of 400 nM and 8 μM ATP in the reaction respectively. The kinase reaction was allowed to proceed for 1 hour at room temperature before a 10 μL preparation of kinase quench buffer and Tb-labeled Antibody in TR-FRET dilution buffer was added. The final concentration of the antibody in the assay well is 2 nM and the final concentration of EDTA is 10 mM. The plate was incubated at room temperature for 1 h.
as §1
Excitation-330 nm and Emission 486 nm (donor) and 520 nm (acceptor).
TR FRET Ratio (Fluorescence 520 nm/Fluorescence 486 nm) was plotted against the concentration of inhibitor and data was fit to Non Linear Regression curve fit (sigmoidal dose response curve with variable slope-four parameters) using Graph Pad Prism 5.

T2 sequence (P42345 1360-2549 limits assumed): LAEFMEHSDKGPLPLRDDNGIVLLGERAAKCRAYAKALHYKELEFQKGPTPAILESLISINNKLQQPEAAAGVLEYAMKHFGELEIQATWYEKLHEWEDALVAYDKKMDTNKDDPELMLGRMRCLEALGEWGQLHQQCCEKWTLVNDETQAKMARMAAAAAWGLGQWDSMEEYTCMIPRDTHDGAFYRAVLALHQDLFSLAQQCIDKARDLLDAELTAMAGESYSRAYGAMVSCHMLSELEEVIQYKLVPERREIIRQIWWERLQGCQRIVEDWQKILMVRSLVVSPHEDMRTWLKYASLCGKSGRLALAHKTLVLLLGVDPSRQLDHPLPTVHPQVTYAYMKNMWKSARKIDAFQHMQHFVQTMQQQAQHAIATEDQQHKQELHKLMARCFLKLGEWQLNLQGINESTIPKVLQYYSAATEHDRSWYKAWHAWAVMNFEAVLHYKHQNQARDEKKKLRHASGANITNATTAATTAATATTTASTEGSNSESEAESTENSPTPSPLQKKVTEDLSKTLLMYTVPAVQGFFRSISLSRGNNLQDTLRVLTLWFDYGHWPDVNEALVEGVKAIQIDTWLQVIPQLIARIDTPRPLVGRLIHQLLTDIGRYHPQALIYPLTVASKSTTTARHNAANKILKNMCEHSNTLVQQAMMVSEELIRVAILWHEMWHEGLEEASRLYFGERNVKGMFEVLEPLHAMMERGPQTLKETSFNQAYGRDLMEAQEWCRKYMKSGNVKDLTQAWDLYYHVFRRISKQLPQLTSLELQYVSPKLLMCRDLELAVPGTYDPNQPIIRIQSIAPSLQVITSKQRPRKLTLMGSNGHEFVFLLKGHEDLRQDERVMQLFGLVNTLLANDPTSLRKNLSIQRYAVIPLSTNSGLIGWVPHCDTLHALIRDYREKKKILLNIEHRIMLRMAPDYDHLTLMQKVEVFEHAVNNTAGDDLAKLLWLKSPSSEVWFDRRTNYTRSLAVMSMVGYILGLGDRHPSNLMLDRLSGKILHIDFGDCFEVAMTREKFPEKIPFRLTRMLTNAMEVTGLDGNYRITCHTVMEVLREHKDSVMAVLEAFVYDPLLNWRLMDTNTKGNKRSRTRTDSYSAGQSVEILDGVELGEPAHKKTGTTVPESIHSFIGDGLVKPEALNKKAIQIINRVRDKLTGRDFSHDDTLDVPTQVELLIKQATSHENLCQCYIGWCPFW
T1 sequence (P42336 whole entry): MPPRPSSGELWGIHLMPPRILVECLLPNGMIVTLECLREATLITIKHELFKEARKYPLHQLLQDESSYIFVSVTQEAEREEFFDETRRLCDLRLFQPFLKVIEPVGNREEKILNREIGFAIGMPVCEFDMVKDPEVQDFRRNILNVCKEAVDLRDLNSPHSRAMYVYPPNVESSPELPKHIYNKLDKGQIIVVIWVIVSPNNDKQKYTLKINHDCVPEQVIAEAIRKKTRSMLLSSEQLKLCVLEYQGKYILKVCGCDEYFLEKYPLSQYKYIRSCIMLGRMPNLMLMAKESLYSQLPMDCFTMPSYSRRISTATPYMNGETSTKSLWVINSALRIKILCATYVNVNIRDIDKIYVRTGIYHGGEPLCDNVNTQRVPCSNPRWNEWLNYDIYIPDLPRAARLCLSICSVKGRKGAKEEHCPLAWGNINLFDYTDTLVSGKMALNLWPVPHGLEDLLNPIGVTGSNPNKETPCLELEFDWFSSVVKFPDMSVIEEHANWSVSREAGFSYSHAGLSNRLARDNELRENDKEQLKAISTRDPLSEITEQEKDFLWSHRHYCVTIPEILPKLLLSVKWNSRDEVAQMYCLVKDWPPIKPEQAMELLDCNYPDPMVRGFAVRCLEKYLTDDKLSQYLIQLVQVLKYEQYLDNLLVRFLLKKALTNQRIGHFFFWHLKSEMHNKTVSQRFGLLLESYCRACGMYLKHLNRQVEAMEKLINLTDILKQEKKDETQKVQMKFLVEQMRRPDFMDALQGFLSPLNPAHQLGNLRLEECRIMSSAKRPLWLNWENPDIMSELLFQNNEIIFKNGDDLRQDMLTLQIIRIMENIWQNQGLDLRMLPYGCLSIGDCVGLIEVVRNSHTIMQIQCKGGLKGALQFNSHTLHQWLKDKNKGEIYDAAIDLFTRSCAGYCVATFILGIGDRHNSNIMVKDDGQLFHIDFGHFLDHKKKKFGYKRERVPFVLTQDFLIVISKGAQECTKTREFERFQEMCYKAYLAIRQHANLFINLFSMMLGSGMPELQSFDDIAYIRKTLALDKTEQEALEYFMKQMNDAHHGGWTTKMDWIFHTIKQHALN
T1 sequence (P27986 whole entry partner): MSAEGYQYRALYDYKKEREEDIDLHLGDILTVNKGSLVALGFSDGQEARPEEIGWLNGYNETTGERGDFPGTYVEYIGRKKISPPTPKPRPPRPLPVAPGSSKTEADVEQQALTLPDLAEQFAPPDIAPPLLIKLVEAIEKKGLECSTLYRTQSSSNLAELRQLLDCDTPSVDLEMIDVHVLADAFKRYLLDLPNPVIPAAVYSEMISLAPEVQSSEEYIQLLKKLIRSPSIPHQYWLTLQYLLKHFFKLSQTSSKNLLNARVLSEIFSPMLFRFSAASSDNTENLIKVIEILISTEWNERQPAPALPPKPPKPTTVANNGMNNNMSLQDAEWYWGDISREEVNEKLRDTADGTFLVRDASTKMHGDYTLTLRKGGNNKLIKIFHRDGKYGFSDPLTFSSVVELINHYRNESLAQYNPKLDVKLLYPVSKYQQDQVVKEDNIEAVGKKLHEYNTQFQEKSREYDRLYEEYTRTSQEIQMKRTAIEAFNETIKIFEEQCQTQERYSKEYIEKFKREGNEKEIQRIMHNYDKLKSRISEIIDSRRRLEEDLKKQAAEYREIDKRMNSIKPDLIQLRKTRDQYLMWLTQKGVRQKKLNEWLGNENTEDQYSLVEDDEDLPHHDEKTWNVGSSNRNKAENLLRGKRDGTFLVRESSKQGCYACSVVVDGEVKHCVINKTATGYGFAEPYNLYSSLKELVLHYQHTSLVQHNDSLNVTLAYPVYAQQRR

Compound	inhibition at 1 µM [1]	IC50 [1]	inhibition at 1 µM [2]	IC50 [2]
C[C@H]1CN(c2nc(Oc3ccc(C(=O)N(C)C)cc3)nc(-c3cnc(N)s3)n2)CCO1 [Compound 10127, 4-(4-(2-aminothiazol-5-yl)-6-((S)-2-methylmorpholino)-1,3,5-triazin-2-yloxy)-N,N-dimethylbenzamide]	> 50%	< 1 µM	> 50%	< 1 µM
CN(C)C(=O)c1ccc(Oc2nc(-c3cnc(N)s3)nc(N3CC4CCC(C3)O4)n2)cc1 [Compound 10075, 4-((4-(2-Aminothiazol-5-yl)-6-(8-oxa-3-azabicyclo[3.2.1]octan-3-yl)-1,3,5-triazin-2-yl)oxy)-N,N-dimethylbenzamide]	< 50%	> 1 µM	> 50%	< 1 µM
C[C@@H]1CN(c2nc(Oc3ccc(C(=O)N(C)C)cc3F)nc(-c3cnc4[nH]ccc4c3)n2)[C@@H](C)CO1 [Compound 10105, 4-((4-((2R,5S)-2,5-dimethylmorpholino)-6-(1H-pyrrolo[2,3-b]pyridine-5-yl)-1,3,5-triazin-2-yl)oxy)-3-fluoro-N,N-dimethylbenzamide]	–	> 1 µM	–	< 1 µM
CN(C)C(=O)c1ccc(Oc2nc(-c3ccc4[nH]ncc4c3)nc(N3CC4CCC(C3)O4)n2)c(F)c1 [Compound 10140, 4-(4-(8-oxa-3-aza-bicyclo[3.2.1]octan-3-yl)-6-(1H-indazol-5-yl)-1,3,5-triazin-2-yloxy)-3-fluoro-N,N-dimethylbenzamide]	–	> 10 µM	> 50%	< 1 µM
CN(C)C(=O)c1cccc(Nc2nc(-c3cnc(N)s3)nc(N3CCOCC3)n2)c1 [Compound 10200, 3-((4-(2-aminothiazol-5-yl)-6-morpholino-1,3,5-triazin-2-yl)amino)-N,N-dimethylbenzamide]	–	< 1 µM	< 50%	–
CS(=O)(=O)N1CCC(COc2nc(-c3ccc(N)nc3)nc(N3CCOCC3)n2)CC1 [Compound 10185, 5-(4-((1-(methylsulfonyl)piperidin-4-yl)methoxy)-6-morpholino-1,3,5-triazin-2-yl)pyridin-2-amine]	–	< 1 µM	< 50%	–
CN(C)C(=O)c1ccc(Oc2nc(-c3cnc(N)s3)nc(N3CC4CCC(C3)O4)n2)c(F)c1 [Compound 10154, 4-(4-(8-oxa-3-aza-bicyclo[3.2.1]octan-3-yl)-6-(2-aminothiazol-5-yl)-1,3,5-triazin-2-yloxy)-3-fluoro-N,N-dimethylbenzamide]	< 50%	> 1 µM	–	< 1 µM
C[C@@H]1CN(c2nc(Oc3ccc(C(=O)N(C)C)cc3)nc(-c3cnc(N)s3)n2)C[C@H](C)O1 [Compound 10122, 4-(4-(2-aminothiazol-5-yl)-6-((2S,6R)-2,6-dimethylmorpholino)-1,3,5-triazin-2-yloxy)-N,N-dimethylbenzamide]	< 50%	–	> 50%	> 1 µM
CN(C)C(=O)c1ccc(Oc2nc(-c3cnc(N)s3)nc(N3CCCCC3)n2)cc1 [Compound 10119, 4-(4-(2-aminothiazol-5-yl)-6-(piperidin-1-yl)-1,3,5-triazin-2-yloxy)-N,N-dimethylbenzamide]	–	> 10 µM	< 50%	–
C[C@@H]1CN(c2nc(Oc3ccc(C(=O)N(C)C)cc3F)nc(-c3cnc(N)s3)n2)[C@H](C)CO1 [Compound 10205, 4-((4-(2-aminothiazol-5-yl)-6-((2R,5R)-2,5-dimethylmorpholino)-1,3,5-triazin-2-yl)oxy)-3-fluoro-N,N-dimethylbenzamide]	–	–	–	< 1 µM
Nc1ccc(-c2nc(SCc3ccccc3)nc(N3CCOCC3)n2)cn1 [Compound 10175, 5-(4-(benzylthio)-6-morpholino-1,3,5-triazin-2-yl)pyridine-2-amine]	–	< 1 µM	–	–
CN(C)C(=O)c1ccc(Oc2nc(-c3cnc(N)s3)nc(N3CCOCC34CCCC4)n2)c(F)c1 [Compound 10083, 4-((4-(2-Aminothiazol-5-yl)-6-(9-oxa-6-azaspiro[4.5]decan-6-yl)-1,3,5-triazin-2-yl)oxy)-3-fluoro-N,N-dimethylbenzamide]	–	< 1 µM	–	–
C[C@H]1COCCN1c1nc(Oc2ccc(C(=O)N(C)C)cc2)nc(-c2cnc(NC(=O)c3cccnc3)s2)n1 [Compound 10094, (S)-N-(5-(4-(4-(dimethylcarbamoyl)phenoxy)-6-(3-methylmorpholino)-1,3,5-triazin-2-yl)thiazol-2-yl)nicotinamide]	< 50%	–	–	–
Nc1ncc(-c2nc(N3CCOCC3)nc(N3CCNC(=O)CC3)n2)s1 [Compound 10198, 1-(4-(2-aminothiazol-5-yl)-6-morpholino-1,3,5-triazin-2-yl)-1,4-diazepan-5-one]	–	< 1 µM	–	–
CN(C)C(=O)N1CCC(Oc2nc(-c3ccc(N)nc3)nc(N3CCOCC3)n2)C1 (stereo not shown) [Compound 10186, 3-((4-(6-aminopyridin-3-yl)-6-morpholino-1,3,5-triazin-2-yl)oxy)-N,N-dimethylpyrrolidine-1-carboxamide]	–	< 1 µM	–	–
C[C@H]1CN(c2nc(Oc3ccc(C(=O)N(C)C)cc3F)nc(-c3cnc(N)s3)n2)[C@@H](C)[C@@H](C)O1 [Compound 10088, 4-((4-(2-Aminothiazol-5-yl)-6-((2R,3S,6S)-2,3,6-trimethylmorpholino)-1,3,5-triazin-2-yl)-oxy)-3-fluoro-N,N-dimethylbenzamide]	–	–	< 50%	–
C[C@H]1CN(c2nc(Oc3ccc(C(=O)N(C)C)cc3F)nc(-c3cnc(N)s3)n2)C[C@H](C)O1 [Compound 10084, 4-((4-2-Aminothiazol-5-yl)-6-((2S,6S)-2,6-dimethylmorpholino)-1,3,5-triazin-2-yl)oxy-3-fluoro-N,N-dimethylbenzamide]	–	–	–	< 1 µM
CN(C)C(=O)c1ccc(Oc2nc(-c3cnc(N)s3)nc(N3CCO[C@@H]4CCC[C@@H]43)n2)c(F)c1 [Compound 10206]	–	–	–	< 1 µM
CN(C)C(=O)c1ccc(Oc2nc(-c3ccc(NN)nc3)nc(N3CCOCC3)n2)cc1 [Compound 10177, 4-((4-(6-hydrazinylpyridin-3-yl)-6-morpholino-1,3,5-triazin-2-yl)oxy)-N,N-dimethylbenzamide]	–	< 1 µM	–	–
CN(C)C(=O)Cc1cccc(Oc2nc(-c3ccc(N)nc3)nc(N3CCOCC3)n2)c1 [Compound 10184, 2-(3-((4-(6-aminopyridin-3-yl)-6-morpholino-1,3,5-triazin-2-yl)oxy)phenyl)-N,N-dimethylacetamide]	–	< 1 µM	–	–
CN(C)C(=O)N1CCC(COc2nc(-c3ccc(N)nc3)nc(N3CCOCC3)n2)C1 (stereo not shown) [Compound 10187, 3-(((4-(6-aminopyridin-3-yl)-6-morpholino-1,3,5-triazin-2-yl)oxy)methyl)-N,N-dimethylpyrrolidine-1-carboxamide]	–	< 1 µM	–	–
CN(C)C(=O)c1cccc(Oc2nc(-c3ccc(N)nc3)nc(N3CCOCC3)n2)c1 [Compound 10183, 3-((4-(6-aminopyridin-3-yl)-6-morpholino-1,3,5-triazin-2-yl)oxy)-N,N-dimethylbenzamide]	–	< 1 µM	–	–
C[C@@H]1CN(c2nc(Oc3ccc(C(=O)N(C)C)cc3F)nc(-c3cnc(N)s3)n2)C[C@@H](C)O1 [Compound 10070, 4-((4-2-Aminothiazol-5-yl)-6-((2R,6R)-2,6-dimethylmorpholino)-1,3,5-triazin-2-yl)oxy-3-fluoro-N,N-dimethylbenzamide]	–	–	–	< 1 µM
CC1COCCN1c1nc(Oc2ccc(C(=O)N(C)C)cc2F)nc(-c2ccc(N)nc2)n1 (stereo not shown) [Compound 10207, 4-((4-(6-aminopyridin-3-yl)-6-(3-methylmorpholino)-1,3,5-triazin-2-yl)oxy)-3-fluoro-N,N-dimethylbenzamide]	–	–	–	< 1 µM

— US9630958B2, “Triazine compounds” (Sphaera Pharma Pte. Ltd., priority 2012, dated 2017)
